The data set in a line: gradient 5% acetonitrile 3 min, to 50% in 2 min, to 85% in 15 min, held 3 min, 100 µL/min. The settings on record: column: Zorbax Extend-C18 2.1 x 50 mm; eluents: water / acetonitrile, 0.1% formic acid. The method in brief: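 In both positive and negative ionization mode, a quadrupole time-of-flight mass spectrometer coupled to HPLC analyzed pure standards run in mixtures of ~100 molecules. The Zorbax Extend-C18 column (2.1 × 50 mm, 1.8 μm) was operated at 100 μL/min with water and acetonitrile, each containing 0.1% formic acid. The dead volume was 40 μL and the dwell volume 900 μL. Retention time came from adduct peaks that were computationally picked and individually inspected by hand.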
On to `Cc1cccc(-c2noc(Cn3ccn(-c4ccc(Cl)cc4)c(=O)c3=O)n2)c1`, for which the RP-LC retention time stood at 929 s.

For the molecule `CCOc1ccc(-c2nc(C3CC(=O)N(c4ccc(OC)c(OC)c4)C3)no2)cc1` (stereo not drawn), the RP-LC retention time amounted to 912 s.

`CN1C(=O)C2CCCCN2c2ccc(C(=O)NCCCc3ccccc3)cc21` (stereo not drawn) displayed an RP-LC retention time of 939 s.

`COc1ccc(S(=O)(=O)N2C[C@@H](F)C[C@H]2C(=O)N2CCCCC2)cc1` had an RP-LC retention time of 762 s.

On to `CCCn1c(=O)c(C)nc2cc(-c3noc(-c4ccc(F)cc4)n3)ccc21`, for which the RP-LC retention time came out at 1200 s.

As for `Cc1ccc(CNC(=O)CN2C(=O)C3CCCCN3c3ccc(S(=O)(=O)N(C)C)cc32)o1` (stereo not drawn), the RP-LC retention time was 867 s.

Turning to `COc1ccc(C(=O)N2CCC3(C2)C(=O)N(C)c2ccc(OC)cc23)c(OC)c1` (stereo not drawn), the RP-LC retention time was determined as 760 s.

`CC(C)c1cccc(NC(=O)Cn2ncc3c(N4CCN(c5ccccn5)CC4)ncnc32)c1`: the RP-LC retention time was determined as 570 s.

Turning to `O=C(Nc1ccc(N2CCN(c3ccccc3)C2=O)nc1)c1cccnc1`, the RP-LC retention time was 689 s.

The molecule `O=C1COc2cc(S(=O)(=O)N3CCCC3C(=O)N3CCOCC3)c(Cl)cc2N1` (stereo not drawn) showed an RP-LC retention time of 628 s.

For `O=C(Cc1cccc(Cl)c1)NC1CCN(c2cc(-c3cccs3)[nH]n2)C1` (stereo not drawn), the RP-LC retention time stood at 702 s.

Molecule `CC(O)(CNC(=O)C(=O)Nc1cccc(N2CCCCC2=O)c1)c1ccccc1` (stereo not drawn) displayed an RP-LC retention time of 668 s.

For `O=S(=O)(c1ccc(-c2nnc(C3CC3)o2)o1)N1CCOCC1`, the RP-LC retention time is 717 s.

The molecule `O=C(NCCOc1ccc(F)cc1)C1CCCN(c2ccc(-c3cccs3)nn2)C1` (stereo not drawn) came in with an RP-LC retention time of 702 s.

`COCCNC(=O)NCCC1CCN(S(=O)(=O)c2ccc(C)cc2)CC1` had an RP-LC retention time of 686 s.

The molecule `CC1CCC(NC(=O)C2CCCN(C(=O)c3cc(-c4ccncc4)n[nH]3)C2)CC1` (stereo not drawn) had an RP-LC retention time of 632 s.

Molecule `CC(C)CCNC(=O)C1(C)Cn2nc(C(=O)NCC(C)c3ccccc3)cc2C(=O)N1C` (stereo not drawn) had an RP-LC retention time of 833 s.

`CCCN(C(=O)C1CCCN(c2ncnc3c2nc2n3CCCCC2)C1)c1ccccc1C` (stereo not drawn) had an RP-LC retention time of 1000 s.

In turn, `CCC(=O)Nc1nc(-c2ccc3c(c2)NC(=O)C(C)O3)c(C)s1` (stereo not drawn) had an RP-LC retention time of 759 s.

On to `C=CCn1c(=O)c2ccccc2n(Cc2nc(-c3ccc(OC(F)(F)F)cc3)no2)c1=O`, for which the RP-LC retention time was 1140 s.

With `COC[C@@H]1CN(Cc2ccc(Cl)c(F)c2)C[C@H]1c1nc(C)no1`, the RP-LC retention time is 645 s.

With `CCc1noc(-c2ccnc(-n3cnc(C(=O)NCC4CC4)c3)c2)n1`, the RP-LC retention time stood at 801 s.

In the case of `COc1ccc(NC(=O)N2[C@H]3CC[C@@H]2c2cnc(-c4ccccc4)nc2C3)c(OC)c1`, the RP-LC retention time worked out at 894 s.

Take `Cc1nn(C2CCS(=O)(=O)C2)c(C)c1N1CCN(CC(=O)Nc2ccccc2F)CC1` (stereo not drawn): the RP-LC retention time worked out at 558 s.

Consider `Cc1ccc(-c2ccc3nn(Cc4nc(-c5ccc(OC(F)(F)F)cc5)no4)c(=O)n3n2)cc1`, for which the RP-LC retention time turned out to be 1120 s.

Take `Cc1nc(-c2cc3ccccc3nc2N2CCN(Cc3ccccc3)CC2)no1`: the RP-LC retention time worked out at 715 s.

`Cc1cc(NC(=O)C2CCC2)nn1Cc1ccccc1` registered an RP-LC retention time of 841 s.

The molecule `O=C(Cc1ccc(NS(=O)(=O)c2ccc3c(c2)OCCO3)cc1)NC1CC1` registered an RP-LC retention time of 678 s.

With `COc1cccc(-c2nc(C3CCN(S(=O)(=O)c4ccc(F)c(C)c4)CC3)no2)c1`, the RP-LC retention time was 1150 s.

For the molecule `CN(CCc1noc(-c2ccccc2)n1)C(=O)Nc1ccc(F)cc1F`, the RP-LC retention time turned out to be 858 s.

Turning to `O=C(CN1C(=O)CCCc2cc(S(=O)(=O)N3CCCCC3)ccc21)Nc1ccc(Cl)cc1F`, the RP-LC retention time is 995 s.

`CNCc1cc(-c2ccccc2F)n(S(=O)(=O)c2cccnc2)c1`: the RP-LC retention time worked out at 682 s.

The molecule `COc1cc(OC)cc(-c2nc(C3CC(=O)N(c4ccc(F)c(Cl)c4)C3)no2)c1` (stereo not drawn) returned an RP-LC retention time of 1110 s.

In turn, `COCCN1C(=O)c2cccn2CC1CNC(=O)c1ccnn1C` (stereo not drawn) returned an RP-LC retention time of 626 s.

Consider `COc1ccccc1CNC(=O)CN1CCN(Cc2cccc(Cl)c2)C1=O`, for which the RP-LC retention time stood at 848 s.

`O=C(Cc1cccs1)N1CCN(c2ccc(=O)n(-c3ccc(Cl)cc3)n2)CC1`: the RP-LC retention time turned out to be 804 s.

Regarding `O=C([C@H]1C[C@@H](F)CN1S(=O)(=O)c1cccc(Cl)c1)N1CCOCC1`, the RP-LC retention time is 717 s.

Turning to `Cc1cccc(OCC(=O)NC2(c3nc(C)no3)CCCCC2)c1`, the RP-LC retention time is 951 s.

For the molecule `CNC(=O)c1cc(C)nc2c(C)cc(C)cc12`, the RP-LC retention time was 568 s.

`O=C(c1ccc2[nH]ccc2c1)N1CCN(c2cc(-c3cccs3)[nH]n2)CC1` registered an RP-LC retention time of 708 s.

`Cc1ccc(F)cc1NS(=O)(=O)c1cc(-c2[nH]ncc2C(=O)N2CCCCC2)oc1C` returned an RP-LC retention time of 791 s.

The molecule `CC1=NS(=O)(=O)N(Cc2ccccc2)C=C1C(=O)OCc1noc(-c2cccc(C)c2)n1` displayed an RP-LC retention time of 1180 s.

On to `CCCNC(=O)C1CCCN(c2nc3ncn(CC(=O)NCc4ccc(C)cc4)c(=O)c3s2)C1` (stereo not drawn), for which the RP-LC retention time was 715 s.

`COc1ccc(C2(C(=O)N3CCCOCCNC(=O)[C@@H]4CCC[C@@H]43)CC2)cc1` displayed an RP-LC retention time of 711 s.

Regarding `CCOC(=O)C1CCN(c2c(C#N)cnc3ccc(Cl)cc23)CC1`, the RP-LC retention time worked out at 935 s.

In turn, `CN1CCC(N2CCN(C(=O)CCc3cn(C)nc3-c3ccc(F)cc3)CC2)CC1` had an RP-LC retention time of 559 s.

Turning to `COc1cccc(-c2cc(CNC(=O)c3sc(-n4cccc4)nc3C)no2)c1`, the RP-LC retention time was 934 s.

With `CCN1CCN(c2cc(C(=O)O)c3cc(NC(=O)C4CCC4)ccc3n2)CC1`, the RP-LC retention time is 565 s.

For the molecule `Cc1cc(NC(=O)C2CCCN(c3nc4ccsc4c(=O)n3Cc3ccc(F)cc3)C2)ccc1F` (stereo not drawn), the RP-LC retention time came out at 1050 s.

For `CN(C)c1nc2ncn3c(=O)n(CC(=O)Nc4cccc(F)c4)nc3c2s1`, the RP-LC retention time came out at 686 s.

Turning to `COc1ccccc1-c1nc(-c2ccnc(N3CCOCC3)c2)no1`, the RP-LC retention time was found to be 812 s.

`Cc1cccc(N2CCN(C(=O)C3CCN(c4cnc5nccnc5c4)CC3)CC2)c1` had an RP-LC retention time of 749 s.

In the case of `CCC(C)NC(=O)C1CCCN(c2cnc3nccnc3c2)C1` (stereo not drawn), the RP-LC retention time is 608 s.

Take `Cn1c(=O)n(C)c2cc(CNc3ccc(C(=O)O)c(Cl)c3)ccc21`: the RP-LC retention time was 697 s.

Regarding `CCCOC1CCN(C(=O)NC)CC1`, the RP-LC retention time stood at 630 s.

Turning to `CCn1cc(C(=O)Nc2ccc(F)cc2)c2cccnc21`, the RP-LC retention time was determined as 824 s.

On to `COCC1(O)CCOC2(CCN(Cc3cc(C)ccc3C)CC2)C1` (stereo not drawn), for which the RP-LC retention time is 559 s.

Take `O=C(COc1ccccc1)N1CCN(S(=O)(=O)c2cc3c4c(c2)CCC(=O)N4CCC3)CC1`: the RP-LC retention time is 782 s.

Consider `O=c1c2sccc2n(Cc2nc(-c3ccc(F)c(Cl)c3)no2)c(=O)n1CCc1ccccc1`, for which the RP-LC retention time came to 1230 s.

`Cc1ccc2c(c1)N(C(=O)Cn1c(C(C)C)nc3c(c1=O)CCN(Cc1ccccc1)C3)CCO2` showed an RP-LC retention time of 787 s.

Consider `Cc1ccccc1N1CCN(c2ncc(C(=O)O)c(C)n2)CC1`, for which the RP-LC retention time is 1040 s.

Regarding `COc1ccc(-n2nc(C)c3sc(N4CCCC(C(=O)NCC5CCCO5)C4)nc32)cc1` (stereo not drawn), the RP-LC retention time was 895 s.

`Cc1cc(N2CCOCC2)nc(N2CCN(S(=O)(=O)c3cc(C(C)C)ccc3C)CC2)n1` gave an RP-LC retention time of 803 s.

Turning to `COCCCNc1ncc(C(=O)O)c(-c2cccc(OC)c2)n1`, the RP-LC retention time came out at 668 s.

Molecule `CN1CCN(c2cc(-c3nc(-c4ccccc4)no3)c3ccccc3n2)CC1` returned an RP-LC retention time of 796 s.

The molecule `O=C1CCN(S(=O)(=O)c2ccccc2)CCCN(S(=O)(=O)Cc2ccccc2)CCN1` returned an RP-LC retention time of 779 s.

`Cc1ccc(CNC(=O)Nc2ccc(-c3nc(-c4ccc(C)cc4C)co3)cc2)cc1` displayed an RP-LC retention time of 1240 s.

With `CCn1nccc1C(=O)N1CCC[C@H]1c1nc(-c2ccccc2)n[nH]1`, the RP-LC retention time was determined as 627 s.

As for `COc1ccc(NC(=O)N2CCCC2c2nc(-c3ccc(F)cc3F)no2)c(OC)c1` (stereo not drawn), the RP-LC retention time was determined as 940 s.

In turn, `Cc1ccc(Cl)cc1NC(=O)N1CCC(N2CCN(Cc3ccccn3)C(=O)C2=O)CC1` registered an RP-LC retention time of 647 s.

The molecule `Cc1cccc(NC(=O)NCCc2cn(CC(C)C)c3ncccc23)c1C` gave an RP-LC retention time of 839 s.

In turn, `CN(C)c1ccc(C(CNC(=O)c2cccs2)N(C)C)cc1` (stereo not drawn) had an RP-LC retention time of 618 s.

As to `CN(C)c1ccc(N2C=C(C(=O)N3CCCCC3)S(=O)(=O)c3ccc(F)cc32)cc1`, the RP-LC retention time amounted to 959 s.

For the molecule `Cc1cc(C(=O)N2CCC(c3nc4ccccc4s3)CC2)n(C)n1`, the RP-LC retention time was 715 s.

In turn, `Cc1nnc2ccc(NC(=O)Nc3ccc(F)cc3)cn12` came in with an RP-LC retention time of 660 s.

In turn, `Cc1cc(-c2nnc(NC(=O)NCc3ccc(Cl)cc3)o2)c(C)o1` yielded an RP-LC retention time of 853 s.

Molecule `CC(=O)N1CCc2sc(S(=O)(=O)N3CCN(c4ccccc4C)CC3)cc2C1` showed an RP-LC retention time of 995 s.

`O=C(NCCc1csc(-c2ccccc2)n1)[C@H]1CCCN1C(=O)C1CCCC1` returned an RP-LC retention time of 814 s.

Values taken from the METLIN SMRT retention time set (Domingo-Almenara et al. 2019).
